Reference: US20160008298A1, “XANTHOHUMOL-BASED COMPOUNDS AND COMPOSITIONS THEREOF, AND METHODS OF MAKING AND USING THE SAME” (Oregon State University, priority 2014, published 2016)
“And” between values parts separate entries of the source, which are not always exact repeats. Equal values may be shown once.

Columns and labels:
C2C12 cells = assay: MTT cell viability assay; format: cell-based, mouse; settings: for cell viability after one hour of exposure: C2C12, 1 hour, up to 50 μM; for concentration at which cell viability was decreased: C2C12, 24 hours of exposure
Procedure: Mouse C2C12 skeletal muscle myoblasts (purchased from ATCC, Manassas, Va., USA) were first seeded in 75 cm2 flasks using a culture medium consisting of DMEM (Life Technologies, Grand Island, N.Y., USA), 10% fetal bovine serum (FBS; Atlanta Biologicals, Lawrenceville, Ga., USA), high glucose, L-glutamine, phenol red, 1 mM sodium pyruvate and 100 units/mL penicillin, 100 μg/mL streptomycin. The C2C12 cells were incubated at 37° C. in a humidified atmosphere of 5% CO2 until they were confluent. Then, they were obtained by trypsinization and seeded at a specific density in the plates of choice depending on the experiment.
For cell viability experiments (MTT assay), C2C12 cells were plated in 96-well plates at a density of 4,000 cells per well in 200 μL of growth medium (identical to the culture medium). After 48 hours of incubation, the medium was removed and the cells were treated with fresh solutions of various concentrations of XN, DXN or TXN in phenol red-free growth medium. The final concentrations of XN, DXN, TXN were 1, 2, 5, 8, 10, 25, 50 μM, all in quadruplicate wells, in the 96-well plates. The medium used consists of phenol red free DMEM (Life Technologies, Grand Island, N.Y., USA), 10% FBS, 1% glutamine, 1 mM of sodium pyruvate and 100 units/mL penicillin, 100 μg/mL streptomycin. The plates were then incubated for 24 hours or 1 hour. After removing the medium, the cells were treated with 0.5 mg/mL solution of MTT 3-(4,5-dimethylthiazol-2-yl)-2,5-diphenyltetrazolium bromide in phenol red-free growth medium and incubated for two hours. After removing the medium and adding a solution of acidified isopropanol to each well, the absorbance of each well was measured at 570 nm by using a spectrometer (SpectraMax 190).
Two MTT assays were conducted (FIGS. 11A and 11B): after one hour and 24 hours of exposure.

C57BL6/J mice = assay: Intraperitoneal glucose tolerance test in high-fat fed mice; format: in vivo, mouse; settings: for insulin sensitivity in the GTT compared to control (vehicle-diet) mice: 30 mg/kg body weight/day, weeks 4 and 11; for Mean Plasma Glucose Level 0 Min: 30 mg/kg/day in high fat diet, 6 h fast, before glucose injection; for Mean Plasma Glucose Level 15 min / Mean Plasma Glucose Level 30 min / Mean Plasma Glucose Level 60 min / Mean Plasma Glucose Level 120 min / peak glucose level (group average) / time at which peak glucose level was reached / peak glucose level / time at which peak glucose level occurred: 30 mg/kg/day; for Mean Plasma Glucose Level 15 min / Mean Plasma Glucose Level 30 min / Mean Plasma Glucose Level 60 min / Mean Plasma Glucose Level 120 min: after 2 g/kg glucose i.p.; for peak glucose level (group average) / time at which peak glucose level was reached: Week 4 glucose tolerance test; for peak glucose level / time at which peak glucose level occurred: Week 11 glucose tolerance test
Procedure: The total number of C57BL6/J mice was 48, with 12 mice belonging to each of 4 treatment groups. Duration of the feeding was 14 weeks. Mouse feed contained high fat content (60% of kCal), and was supplemented with XN, DXN, or TXN in the treatment groups. XN, DXN and TXN content within the mouse diet were designed to deliver a dose of 30 mg/kg/day body weight. Food intake was measured three times per week by weighing the food pellet before placement in the cage, and at the time of feed changing by weighing uneaten food. Mice were unrestricted in dietary intake, being allowed to eat as much food as desired. Mice were weighed once per week. Groups included low dose (30 mg/kg) XN, DXN, TXN and no supplement control. Mice were maintained in accordance with the Oregon State University Institutional Animal Care and Use Committee (IACUC) regulations. One mouse was maintained on a standard AIN-93M chow diet to be used as a healthy reference during glucose tolerance assays.
Glucose tolerance tests were conducted during week 4 and week 11 of the feeding trial. Five mice from each treatment group were used in each glucose tolerance assay. Mice were fasted for 6 hours prior to baseline blood glucose testing. Blood was collected from the mice by tail puncture, and glucose measurements were taken using a One Touch UltraMini (LifeScan, Inc.) glucometer. Mice were weighed and then given an intraperitoneal (IP) injection of glucose equal to 2 g/kg body weight.

[1] = Dissolution in Seahorse running medium; format: physicochemical; settings: 0.1% of FBS, 37° C.
C2C12 muscle mouse cells = assay: Seahorse cell titration assay; format: cell-based; settings: 2 μM, 20,000 cells/well
Procedure: As advised by Seahorce Bioscience, running a cell titration assay with FCCP at different concentrations prior to any Seahorse experiment is an important step to determine proper cell density for the cell line used. Then, oligomycin was tested at different concentrations at the proper cell density in order to determine the optimal working concentration. These optimization and titration assays offered starting conditions in determining the uncoupling effects on the mitochondria.
In the cell titration assay, cells were plated at 10,000, 20,000 and 40,000 cells/wells and FCCP was injected at 0.3 μM or 0.5 μM. […] DXN was also injected at 2 μM at 20,000 cells/well to have an idea of its potential effects on OCR.

mice [2] = settings: mouse; cited from earlier work
mice [3] = assay: Mouse LD50; format: in vivo
rats = assay: XN administered to rats at human equivalent doses; format: in vivo, rat
Procedure: In particular disclosed embodiments, the human equivalent dose of 180 mg XN/day reduced body weight gain by 14% and reduced fasting plasma glucose by 25% when administered to rats. In some embodiments, the human equivalent dose of 60 or 180 mg XN/day reduced the formation of products of dysfunctional fatty acid oxidation by up to 55% when administered to rats. Solely by way of example, the range 0.1-500 mg described above in Table 2 for XN covers the effective human equivalent doses of 60 mg/day to 180 mg/day of XN.

[4] = Low and high XN diet feeding for 12 weeks, body weight and food intake; format: in vivo, mouse; settings: high-fat fed C57BL/6J mice; for body weight gain compared to vehicle: oral, 12 weeks
Procedure: FIG. 27 is a graph showing weekly body weights of C57BL/6J mice fed control, low XN (30 mgkg body weight/day) and high XN (60 mg/kg body weight/day) diets for 12 weeks.
FIG. 28 is a graph showing no difference in food intake between treated and untreated mice for the studies from FIG. 27.

[5] = human equivalent dose of 180 mg XN/day

| SMILES | cell viability after one hour of exposure (C2C12 cells) | concentration at which cell viability was decreased (C2C12 cells) [µM] | insulin sensitivity in the GTT compared to control (vehicle-diet) mice (C57BL6/J mice) | Mean Plasma Glucose Level 0 Min (C57BL6/J mice; Week 4) | Mean Plasma Glucose Level 15 min (C57BL6/J mice; Week 4) | Mean Plasma Glucose Level 30 min (C57BL6/J mice; Week 4) | Mean Plasma Glucose Level 60 min (C57BL6/J mice; Week 4) | Mean Plasma Glucose Level 120 min (C57BL6/J mice; Week 4) | peak glucose level (group average) (C57BL6/J mice) | time at which peak glucose level was reached (C57BL6/J mice) [min] | Mean Plasma Glucose Level 0 Min (C57BL6/J mice; Week 11) | Mean Plasma Glucose Level 15 min (C57BL6/J mice; Week 11) | Mean Plasma Glucose Level 30 min (C57BL6/J mice; Week 11) | Mean Plasma Glucose Level 60 min (C57BL6/J mice; Week 11) | Mean Plasma Glucose Level 120 min (C57BL6/J mice; Week 11) | peak glucose level (C57BL6/J mice) [mg/dL] | time at which peak glucose level occurred (C57BL6/J mice) [min] | further results |
| --- | --- | --- | --- | --- | --- | --- | --- | --- | --- | --- | --- | --- | --- | --- | --- | --- | --- | --- |
| COc1cc(O)c(CCC(C)C)c(O)c1C(=O)CCc1ccc(O)cc1 [TXN, tetrahydroxanthohumol] | did not significantly affect cell viability | 25 | improved insulin sensitivity | 193.6 (±17.9) mg/dL | 407.2 (±38.1) mg/dL | 394.6 (±50.1) mg/dL | 235.8 (±21.9) mg/dL | 149.0 (±15.3) mg/dL | 407.2 mg/dL and 423.0 mg/dL | 15 | 245.0 (±17.8) mg/dL | 408.0 (±29.8) mg/dL | 513.6 (±37.6) mg/dL | 450.8 (±5.0) mg/dL | 266.8 mg/dL and 266.8 (±32.1) mg/dL | 513.6 | 30 | – |
| COc1cc(O)c(CC=C(C)C)c(O)c1C(=O)CCc1ccc(O)cc1 [DXN, α,β-dihydroxanthohumol] | did not significantly affect cell viability | 8 | improved insulin sensitivity | 297.6 (±6.6) mg/dL | 396.4 (±55.9) mg/dL | 423.0 (±76.3) mg/dL | 342.8 (±70.4) mg/dL | 176.2 (±40.0) mg/dL | 423.0 mg/dL and 407.2 mg/dL | 30 | 249.8 (±22.1) mg/dL | 474.4 (±46.0) mg/dL | 508.0 (±41.2) mg/dL | 494.8 (±38.9) mg/dL | 298.8 mg/dL and 298.8 (±45.5) mg/dL | 508.0 | 30 | concentration dissolved in running medium [1]: up to 25 μM; increase of OCR (C2C12 muscle mouse cells): 204 % of the baseline |
| COc1cc(O)c(CC=C(C)C)c(O)c1C(=O)/C=C/c1ccc(O)cc1 [XN, xanthohumol] | did not significantly affect cell viability | 50 | improved insulin sensitivity | 283.4 (±4.6) mg/dL | 508.8 (±28.3) mg/dL | 456.0 (±41.5) mg/dL | 389.6 (±29.8) mg/dL | 167.0 (±3.8) mg/dL | 508.8 mg/dL | 15 | 193.2 (±21.9) mg/dL | 465.0 (±30.0) mg/dL | 452.0 (±41.6) mg/dL | 463.8 (±52.2) mg/dL | 373.4 mg/dL and 373.4 (±58.1) mg/dL | 465.0 | 15 | LD50 (mice [2]): > 2000 mg/kg; LD50 dose relative to the effective dose level (mice [3]): more than 50 times; reduction of body weight gain (rats; [5]): 14%; reduction of fasting plasma glucose (rats; [5]): 25%; reduction of the formation of products of dysfunctional fatty acid oxidation (rats; human equivalent dose of 60 or 180 mg XN/day): up to 55%; food intake ([4]; 30 and 60 mg/kg): not altered; body weight gain compared to vehicle ([4]; 30 mg/kg (low dose)): gain less weight; body weight gain compared to vehicle ([4]; 60 mg/kg (high dose)): gain less weight |
